Reference: patent US4603044A, “Hepatocyte Directed Vesicle delivery system” (Technology Unlimited, Inc., priority 1984, dated 1986)

Tests used:
[1] = tested on: denervated dogs (diabetic-like state); assay: Blood glucose response to a standardized meal in selectively denervated (diabetic-like) dogs; format: in vivo, dog; settings: serotonin 150 ug, intravenously or subcutaneously
Excerpt: In a first study testing the HDV system, a chronic dog model was selected which mimics the early stages of adult onset diabetes mellitus, now referred to as diabetes mellitus Type II. In this model, the diabetes was induced by selective denervation.
This study was divided into three phases, studying the blood glucose response of the animals while in the (1) normal state; (2) diabetic-like state; and (3) successful treatment of the diabetic-like state with subcutaneously administered HDV containing serotonin.
The experimental plan required four normal, healthy mongrel dogs. […] The graph of FIG. 1 is a comparison chart for in vivo testing.
The data for this normal phase are shown in the graph as the line indicated by reference number 10. The data are expressed as a percentage of the fasting blood glucose value taken prior to feeding. Since four dogs were used, the average or mean value for the data is plotted. The data are statistically analyzed, and the variation in the data is shown by the small vertical bars above and below the data points. These bars are the standard error of the mean (SEM).
Following the acquisition of the data described above, the dogs were surgically denervated to induce the diabetic-like state and allowed a week to recover. At this time the study is again repeated, and the data are shown as the line indicated by reference number 12, along with the error bars (SEM). […]

[2] = tested on: selectively denervated dog; assay: Conversion of hepatic glucose output to uptake in selectively denervated dog, intraduodenal injection; format: in vivo; settings: infusion for thirty minutes
Procedure: In this model, the response of the HDV Serotonin was the conversion of hepatic glucose output to uptake. This conversion was determined by measuring the glucose levels (Beckman Glucose Analyzer) in simultaneously obtained blood samples from the portal and hepatic veins. Sampling was by means of sampling catheters acutely placed under general anesthesia.
The state of hepatic glucose output occur when the level of glucose (mg %) in the hepatic vein exceeds that of the portal vein. Hepatic glucose uptake is the reverse situation.
Data for the experiment are found in the graph of FIG. 5. At "0" minutes, during the control period, the animal is in a state of hepatic glucose output. Because of the selective denervation, the animal stays in output (at 20 and 55 minutes), even though glucose is being infused at a rate of 0.5 g/kg body weight/hour via a mesenteric vein.
The HDV Serotonin is injected into the duodenum (0.8 ml containing 3 ug serotonin/kg) at 60 minutes.

[3] = tested on: selectively denervated dog; assay: Conversion of hepatic glucose output to uptake in selectively denervated dog, intravenous infusion (biliverdin target); format: in vivo
Procedure: This dog, when infused with glucose, has portal vein glucose values (mg % measured with a Beckman Glucose Analyzer) that are less than hepatic vein glucose, indicating a hep hepatic glucose output. This is clearly seen in the data presented in the of FIG. 6. The dog is in a state of glucose output for time 15, 30 and 40 minutes. […]

[4] = tested on: insulin-deficient (diabetic) dog; assay: Conversion of hepatic glucose output to uptake in insulin-deficient (diabetic) dog, intravenous infusion; format: in vivo; settings: insulin alone
Excerpt: The response of HDV Insulin to be measured was the conversion of hepatic glucose output to uptake by measuring the glucose (Beckman Glucose Analyzer) levels of simultaneously obtained portal and hepatic vein blood. Diabetes had been induced by the method of Black, (Am. J. Pathol. Vol 98, No. 2, pg 295-305, 1980) and sampling was done via portal and hepatic vein catheters acutely placed under general anesthesia. The dog had been fasted from food for twenty-four hours and taken off of exogenously-administered insulin for forty-eight hours.
The state of hepatic glucose output occurs when the hepatic vein glucose level (in mg%) exceeds the portal vein glucose level. Hepatic glucose uptake is the reverse.
The data for the experiment are found in the graph of FIG. 4. At "0" minutes the dog is in glucose output, and this output is maintained through the "23" and "35" minute samples, even though glucose is infused via a mesenteric vein at a rate of 0.5 g/kg body weight/hour. An intact (non-diabetic) animal would have immediately converted to glucose uptake. This dog's diabetic state is confirmed by its' not converting to glucose uptake at these times.
Following the "35" minutes sampling, HDV Insulin was infused via the left external jugular vein at a rate of 0.03 mU/kg/minute. […] The minimum infusion rate for insulin alone is 6.25 mU/kg/minute. […]

hypophysectomized rats = assay: Growth stimulation in hypophysectomized rats, daily subcutaneous injection; format: in vivo, rat
Procedure: The HDVGH was administered to rats daily by subcutaneous injection. The control rats required 10 ugGH per day (also given subcutaneously) to maintain normal growth of 1 g weight gain per day. The HDVGH treated rats attained normal growth rates with dosages of HDVGH of 0.15 to 1.5 ug per day. Thus, the HDVGH required only 1/7th to 1/50th of the regular dose of growth hormone. The HDVGH was superpotent and was efficacious when given by subcutaneous injection.

NCCc1c[nH]c2ccc(O)cc12 [serotonin, 5-hydroxytryptamine]
effect of free serotonin on post-meal blood glucose elevation [1]: not effective | intraportal infusion of free serotonin required for the same pharmacologic effect [2]: 10-30 ug/kg body weight/minute | rate of free serotonin infusion required [3]: 30 µg/kg/min

insulin: free hormone insulin, comparator to HDV Insulin
minimum infusion rate for conversion to hepatic glucose uptake [4]: 6.25 mU/kg/minute

B1: GH: free growth hormone given subcutaneously to control rats (protein, UniProt P01244 27-216, looked up)
Somatotropin: FPAMPLSSLFANAVLRAQHLHQLAADTYKEFERAYIPEGQRYSIQNAQAAFCFSETIPAPTGKEEAQQRTDMELLRFSLLLIQSWLGPVQFLSRIFTNSLMFGTSDRVYEKLKDLEEGIQALMQELEDGSPRIGQILKQTYDKFDANMRSDDALLKNYGLLSCFKKDLHKAETYLRVMKCRRFAESSCAF
daily dose to attain/maintain normal growth (1 g weight gain per day) (hypophysectomized rats): 10 ug per day
